Test results taken from patent US10551384B2, “MTOR kinase mutations and methods of use thereof” (RUTGERS, THE STATE UNIVERSITY OF NEW JERSEY, priority 2016, dated 2020).
Entries after “also recorded” stand apart in the source; their conditions may differ. Like-named read-outs stand apart in the source and are kept apart here.

Legend:
TOR2-mTOR L2185A mutant = experiment: Yeast spotting assay for drug resistance, TOR2-mTOR L2185A; assay type: cell-based, S. cerevisiae
Excerpt: (§1) FIGS. 4A-C. […] (FIG. 4A) Scheme of a yeast-based screen for drug-resistant mutations in mTOR kinase domain. mTOR kinase domain is amplified by error-prone PCR to generate randomized mutations, which is then recombined in frame into the TOR2-mTOR plasmid by gap-repair in tort-dg cells, and is selected on SC-leucine minus plates. Replica plating is then made onto SC-leucine plates containing DMSO or mTOR kinase inhibitor for selection of drug resistant clones. (FIG. 4B) tor2-dg cells expressing WT or mutant TOR2-mTOR were serially diluted by 10-fold and assayed for sensitivity to different mTOR kinase inhibitors in the presence of amphotericin B. Vector and TOR2 were used as controls. Drug resistant assay was performed at 37° C. in the presence of amphotericin B (except OSI-027). (FIG. 4C) Systematic mutational analysis of L2185 on drug resistance. tort-dg cells expressing WT or mutant TOR2-mTOR carrying all possible mutations at L2185 were serially diluted by 10-fold and tested for sensitivity to different mTOR kinase inhibitors at 37° C.
(§2) To enhance yeast cell permeability, log phase W303 tort-dg cells were spread evenly on SD-Leu agarose plates. After drying, small sterile filter discs were placed on the surface and 5 μl of indicated mTOR inhibitors or DMSO were applied to each disc with or without adding 5 μl of amphotericin B (10 μM), miconazole (50 μM) or caspofungin (50 μM). Plates were incubated at 37° C. for 3 day. Drug resistance profiles of TOR2-mTOR mutant cells were determined by the spotting assay. For this assay, 10-fold serial dilutions of cells were spotted on SD-leu plates in the presence of indicated mTOR inhibitors with or without amphotericin B (200 nM) and incubated at 37° C. for 3 day.

TOR2-mTOR L2185C mutant = experiment: Yeast spotting assay for drug resistance, TOR2-mTOR L2185C; assay type: cell-based, S. cerevisiae
Excerpt: as §1, §2

TOR2-mTOR L2185D mutant = experiment: Yeast spotting assay for drug resistance, TOR2-mTOR L2185D; assay type: cell-based, S. cerevisiae; conditions: 37° C., with amphotericin B
Excerpt: as §1, §2

TOR2-mTOR L2185N mutant = experiment: Yeast spotting assay for drug resistance, TOR2-mTOR L2185N; assay type: cell-based, S. cerevisiae; conditions: 37° C., with amphotericin B
Excerpt: as §1, §2

TOR2-mTOR L2185G mutant = experiment: Yeast spotting assay for drug resistance, TOR2-mTOR L2185G; assay type: cell-based, S. cerevisiae; conditions: 37° C., with amphotericin B
Excerpt: as §1, §2

[1] = system: SW480 colorectal cancer cells carrying L2185A mutant mTOR alleles; experiment: SRB growth assay of SW480 cells carrying L2185A mutant mTOR; assay type: cell-based, human; conditions: various concentrations, 2 day
Protocol: (§3) (FIG. 5A) SW480 cells carrying homozygous WT mTOR or L2185A mutant alleles were treated with various concentrations of AZD8055, INK-128, OSI-027 and PP242 for 2 day. Growth of SW480 cells was measured by SRB assay. Data represent means±SD in three independent experiments. (FIG. 5B) SW480 cells carrying homozygous WT and L2185A mutant mTOR allele were treated with a single dose of AZD8055 (100 nM), INK-128 (100 nM), OSI-027 (6,000 nM), and PP242 (2,000 nM) for different times. Cell growth was measured by SRB assay. The drug carrier DMSO was used as a control. Data represent means±SD in three independent experiments. (FIG. 5C) SW480 cells carrying homozygous WT and L2185A mutant mTOR were treated with various concentrations of INK-128, OSI-027, AZD8055 and PP242 for 1 hr. The effect on the level of P-S6K, S6K, P-4E-BP1, 4EB-P1, P-AKT and AKT was analyzed by immunoblot. […] The growth of SW480 cells was measured by SRB assay. Data represent means±SD in three independent experiments.
Cancer cell lines were maintained in DMEM or RPMI 1640, supplemented with 10% fetal bovine serum (Invitrogen) and 1% penicillin/streptomycin (Invitrogen). CRISPR/cas9 technology was used to engineer mutant mTOR allele in SW480 colorectal and H460 lung cancer cells. Briefly, The target sequence for mTOR, […] (SEQ ID NO: 3 was designed through the online tool at crispr.mit.edu, and cloned into pSPCas9(BB)-2A-GFP vector (PX458 in Addgene). Genomic mTOR mutation was engineered using a protocol as described (Ran, et al. (2013). Nature protocols 8, 2281-2308) and was confirmed by targeted sequencing.
(§4) Antibodies against tubulin, S6K, phospho-S6K (Thr389), 4E-BP1, phospho-4E-BP1 (Thr37/46), Akt, phospho-Akt (Thr308), and phospho-Akt (Ser473) were purchased from Cell Signaling Technology. […] For drug sensitivity test, cancer cells were seeded in 96-well plates at a density of 2,000 cells per well. 24 hours later, different concentrations of mTOR inhibitors were added in quadruplicate. Cell growth was measured by the sulforhodamine B (SRB) assay as previously described (Vichai, V., and Kirtikara, K. (2006). Nature protocols 1, 1112-1116).

[2] = system: mTORC1 and mTORC2 signaling in SW480 mTOR(L2185A) cells; experiment: mTORC1/mTORC2 signaling immunoblot in SW480 cells carrying L2185A mutant mTOR; assay type: cell-based, human; conditions: various concentrations, 1 hr, immunoblot of P-S6K, P-4E-BP1, P-AKT
Protocol: as §3, §4

[3] = target: T1, tor2-dg cells expressing TOR2-mTOR (UniProt P32600+P42345, A1929L/A1944S/A1986S/A2056E/A2073S/C1999R/C2085L/C2133A/D1912T/D1918E/D1933G/D1947H/D2096N/DUP2140-2140/E1921Q/E2000I/E2014H/E2032D/E2033D/E2049A/E2059K/E2080D/G1897S/G1954S/G2046K/G2092K/H1915G/H1958L/H1988Q/H2028Y/H2055Y/H2106N/I1939L/I1957L/I1964L/I1973V/I2021V/K1928N/K1993S/K1996E/K2045E/K2066R/K2087N/K2095S/L1923M/L1952I/L1956S/L1995I/L2037Q/L2103I/M2010E/M2011L/M2026Q/M2058L/M2079N/M2089K/M2132S/N1898S/N1899S/N1920T/N1989K/N1992L/N1997K/N2003P/N2071Q/N2093D/P1951Q/Q1937E/Q1959S/Q2007D/Q2063E/Q2072N/Q2082Y/R1890H/R1896E/R1950N/R1966K/R2042H/R2086M/R2110K/R2134H/S1980I/S2112G/S2120T/T1903A/T1948Q/T1962S/T1977M/T1983E/T1984S/T1985L/T2004V/T2068I/T2098N/T2119Q/V1906L/V1919A/V1924H/V1927F/V2019M/V2044T/V2050A/W1916I/Y1913F/Y1967A/Y2038F/Y2074F/Y2125H); experiment: Disc halo assay of tor2-dg cells expressing TOR2-mTOR, with or without antifungal permeability enhancers; assay type: cell-based, S. cerevisiae; conditions: filter discs supplemented with amphotericin B (10 μM), miconazole (50 μM) or caspofungin (50 μM); 37° C., 3 day
T1 construct: fused in frame with mTOR kinase domain (2140-2549 aa); yeast TOR2 N-terminus (1-2080 aa); expressed in transfected cells; host or cells: S. cerevisiae W303 tor2-dg, centromeric plasmid derived from pML40-TOR2
T1 sequence (P32600+P42345 fused with the stated changes): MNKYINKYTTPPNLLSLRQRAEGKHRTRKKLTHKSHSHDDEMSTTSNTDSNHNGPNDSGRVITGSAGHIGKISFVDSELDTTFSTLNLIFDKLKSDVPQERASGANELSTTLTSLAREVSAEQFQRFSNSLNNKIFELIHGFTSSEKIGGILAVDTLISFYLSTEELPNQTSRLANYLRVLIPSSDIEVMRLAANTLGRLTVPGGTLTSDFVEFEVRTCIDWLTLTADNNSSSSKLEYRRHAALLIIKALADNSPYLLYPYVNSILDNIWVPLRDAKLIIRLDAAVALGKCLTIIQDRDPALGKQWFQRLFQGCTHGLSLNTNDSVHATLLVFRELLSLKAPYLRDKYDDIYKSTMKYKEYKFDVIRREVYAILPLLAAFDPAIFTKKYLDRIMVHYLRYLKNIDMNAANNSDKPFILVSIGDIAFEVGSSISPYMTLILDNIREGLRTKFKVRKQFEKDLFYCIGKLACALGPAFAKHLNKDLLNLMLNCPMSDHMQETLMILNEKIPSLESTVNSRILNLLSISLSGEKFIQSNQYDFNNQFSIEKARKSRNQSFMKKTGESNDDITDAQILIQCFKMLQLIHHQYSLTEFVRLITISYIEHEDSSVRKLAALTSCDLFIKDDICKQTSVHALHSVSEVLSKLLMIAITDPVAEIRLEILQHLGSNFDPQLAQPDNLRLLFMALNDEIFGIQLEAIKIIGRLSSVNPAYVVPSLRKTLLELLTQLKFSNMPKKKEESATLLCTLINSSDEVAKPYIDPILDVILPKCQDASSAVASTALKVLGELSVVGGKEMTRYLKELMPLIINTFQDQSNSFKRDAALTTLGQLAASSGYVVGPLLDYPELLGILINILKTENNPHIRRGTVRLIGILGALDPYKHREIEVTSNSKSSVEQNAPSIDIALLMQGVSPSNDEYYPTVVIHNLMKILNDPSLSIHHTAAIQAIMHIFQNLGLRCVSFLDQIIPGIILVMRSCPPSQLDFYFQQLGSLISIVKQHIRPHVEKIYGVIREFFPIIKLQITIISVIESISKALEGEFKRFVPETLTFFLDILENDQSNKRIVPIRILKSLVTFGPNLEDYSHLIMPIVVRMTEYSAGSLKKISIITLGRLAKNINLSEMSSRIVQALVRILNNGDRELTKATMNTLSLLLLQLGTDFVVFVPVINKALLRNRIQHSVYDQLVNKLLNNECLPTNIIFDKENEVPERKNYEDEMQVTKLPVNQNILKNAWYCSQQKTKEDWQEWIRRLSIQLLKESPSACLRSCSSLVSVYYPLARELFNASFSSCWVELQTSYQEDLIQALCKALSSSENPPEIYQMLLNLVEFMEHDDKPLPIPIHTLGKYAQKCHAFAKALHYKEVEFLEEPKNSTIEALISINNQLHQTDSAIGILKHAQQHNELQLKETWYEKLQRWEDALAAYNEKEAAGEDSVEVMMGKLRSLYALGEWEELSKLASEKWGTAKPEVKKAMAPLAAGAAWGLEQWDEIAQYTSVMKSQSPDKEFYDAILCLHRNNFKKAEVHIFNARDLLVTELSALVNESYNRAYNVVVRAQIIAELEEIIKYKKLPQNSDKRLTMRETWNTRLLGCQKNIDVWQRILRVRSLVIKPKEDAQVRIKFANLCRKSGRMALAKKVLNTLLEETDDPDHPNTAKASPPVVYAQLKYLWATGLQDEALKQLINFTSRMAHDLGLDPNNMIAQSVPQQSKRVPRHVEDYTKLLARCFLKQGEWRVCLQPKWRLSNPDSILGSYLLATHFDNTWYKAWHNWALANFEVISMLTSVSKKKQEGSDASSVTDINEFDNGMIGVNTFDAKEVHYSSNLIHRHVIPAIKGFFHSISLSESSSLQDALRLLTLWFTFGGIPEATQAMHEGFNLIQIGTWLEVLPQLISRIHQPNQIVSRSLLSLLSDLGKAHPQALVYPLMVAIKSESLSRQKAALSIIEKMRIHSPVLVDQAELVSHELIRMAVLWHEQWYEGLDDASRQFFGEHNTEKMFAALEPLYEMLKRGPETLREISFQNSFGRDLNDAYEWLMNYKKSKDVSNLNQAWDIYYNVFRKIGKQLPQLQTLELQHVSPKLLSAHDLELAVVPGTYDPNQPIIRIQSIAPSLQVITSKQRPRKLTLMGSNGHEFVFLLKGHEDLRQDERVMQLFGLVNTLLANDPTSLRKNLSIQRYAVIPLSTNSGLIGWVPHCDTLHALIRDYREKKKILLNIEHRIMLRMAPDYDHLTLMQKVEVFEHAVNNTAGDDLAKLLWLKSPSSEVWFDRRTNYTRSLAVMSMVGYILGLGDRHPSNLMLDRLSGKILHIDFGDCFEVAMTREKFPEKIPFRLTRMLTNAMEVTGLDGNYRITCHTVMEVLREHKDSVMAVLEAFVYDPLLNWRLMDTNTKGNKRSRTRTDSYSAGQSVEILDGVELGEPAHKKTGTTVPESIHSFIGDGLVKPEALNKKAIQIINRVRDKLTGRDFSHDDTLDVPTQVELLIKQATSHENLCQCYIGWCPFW
T1 sequence (P41318 whole entry partner): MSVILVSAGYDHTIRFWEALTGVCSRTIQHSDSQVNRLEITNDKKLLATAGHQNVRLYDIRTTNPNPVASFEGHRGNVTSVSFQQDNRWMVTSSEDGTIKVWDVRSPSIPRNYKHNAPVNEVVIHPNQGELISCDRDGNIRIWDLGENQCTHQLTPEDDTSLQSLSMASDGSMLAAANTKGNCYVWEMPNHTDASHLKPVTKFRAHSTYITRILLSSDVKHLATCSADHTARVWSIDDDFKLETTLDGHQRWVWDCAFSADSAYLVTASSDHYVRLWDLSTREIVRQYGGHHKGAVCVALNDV
Protocol: FIGS. 2A-C. Enhancement of yeast cell permeability to structurally diverse mTOR kinase inhibitors by amphotericin B. (FIG. 2A) tor2-dg cells expressing TOR2-mTOR were spread on synthetic complete (SC)-leucine plate and tested for drug sensitivity by disc halo assay using filter discs containing different mTOR kinase inhibitors supplemented with the drug carrier DMSO or amphotericin B (10 μM). (FIG. 2B) Similar to FIG. 2A except the filter discs were supplemented with miconazole (50 μM). (FIG. 2C) Similar to FIG. 2A except the filter discs were supplemented with caspofungin (50 μM).
as §2

[4] = 37° C., amphotericin B present (except OSI-027)

Row | SMILES | drug resistance of TOR2-mTOR L2185D mutant yeast (TOR2-mTOR L2185D mutant) | drug resistance of TOR2-mTOR L2185N mutant yeast (TOR2-mTOR L2185N mutant) | drug resistance of TOR2-mTOR L2185G mutant yeast (TOR2-mTOR L2185G mutant) | drug resistance/sensitivity of cell growth, SW480 L2185A vs WT [1] | effect of antifungal drug on yeast sensitivity to mTOR kinase inhibitors [3] | also measured
1 | COc1ccc(-c2cc3c(C)nc(N)nc3n([C@H]3CC[C@H](OCCO)CC3)c2=O)cn1 [PF-04691502] | moderately resistant | moderately resistant | moderately resistant | still sensitive |  | drug resistance/sensitivity of TOR2-mTOR L2185A mutant yeast (TOR2-mTOR L2185A mutant; [4]): confers resistance; also recorded: conferring resistance; drug resistance/sensitivity of TOR2-mTOR L2185C mutant yeast (TOR2-mTOR L2185C mutant; [4]): confer resistance; also recorded: conferring resistance
2 | COc1ccc(-c2ccc3c(N4CCOC[C@@H]4C)nc(N4CCOC[C@@H]4C)nc3n2)cc1CO [AZD8055] | moderately resistant | moderately resistant | moderately resistant | confers resistance |  | drug resistance/sensitivity of TOR2-mTOR L2185A mutant yeast (TOR2-mTOR L2185A mutant; [4]): confer resistance; also recorded: conferring resistance; drug resistance/sensitivity of TOR2-mTOR L2185C mutant yeast (TOR2-mTOR L2185C mutant; [4]): confer resistance; also recorded: conferring resistance; drug resistance of mTORC1 and mTORC2 signaling, SW480 L2185A vs WT [2]: drug-resistant signaling by both mTORC1 and mTORC2
3 | CN(C)C1CCN(C(=O)c2ccc(NC(=O)Nc3ccc(-c4nc(N5CCOCC5)nc(N5CCOCC5)n4)cc3)cc2)CC1 [PKI-587] | moderately resistant | moderately resistant | moderately resistant |  |  | drug resistance/sensitivity of TOR2-mTOR L2185A mutant yeast (TOR2-mTOR L2185A mutant): conferring resistance; drug resistance/sensitivity of TOR2-mTOR L2185C mutant yeast (TOR2-mTOR L2185C mutant): conferring resistance
4 | CC(C)n1nc(-c2cc3cc(O)ccc3[nH]2)c2c(N)ncnc21 [PP242] |  |  |  | confers resistance |  | drug resistance of mTORC1 and mTORC2 signaling, SW480 L2185A vs WT [2]: drug-resistant signaling by both mTORC1 and mTORC2
5 | Clc1ccc(COC(Cn2ccnc2)c2ccc(Cl)cc2Cl)c(Cl)c1 (centres unmarked) [miconazole] |  |  |  |  | fail to do so | 
6 | CC[C@H](C)C[C@H](C)CCCCCCCCC(=O)N[C@H]1C[C@@H](O)[C@@H](NCCN)NC(=O)[C@@H]2[C@@H](O)CCN2C(=O)[C@H]([C@H](O)CCN)NC(=O)[C@H]([C@H](O)[C@@H](O)c2ccc(O)cc2)NC(=O)[C@@H]2C[C@@H](O)CN2C(=O)[C@H]([C@@H](C)O)NC1=O [caspofungin] |  |  |  |  | fail to do so | 
7 | C[C@@H]1[C@H](O)[C@@H](C)/C=C/C=C/C=C/C=C/C=C/C=C/C=C/[C@H](O[C@@H]2O[C@H](C)[C@@H](O)[C@H](N)[C@@H]2O)C[C@@H]2O[C@](O)(C[C@@H](O)C[C@@H](O)[C@H](O)CC[C@@H](O)C[C@@H](O)CC(=O)O[C@H]1C)C[C@H](O)[C@H]2C(=O)O [Amphotericin B] |  |  |  |  | increases yeast sensitivity to most of mTOR kinase inhibitors | 
